Consider 14 compounds from patent US20090247559A1 (Exelixis, Inc., priority 2007, published 2009).

The IC50 is the concentration that gives 50% inhibition.

Assay [1] concerns the target PIM (PIM-1, PIM-2, and/or PIM-3). The experiment in a line: PIM-1, PIM-2 and PIM-3 inhibition, biochemical chemiluminescence assays (Kinase Glo, IC50 determination). The following applies: Table 1 activity class; PIM refers to PIM-1, PIM-2, and/or PIM-3; read-out: PIM IC50 (Activity B). How it is done: (§1) The IC50 evaluation of compounds against the PIM-1 oncogene was performed in a Chemiluminesence assay utilizing a Greiner 384-well white medium binding white plate format. […] Following an incubation period of 120 minutes at ambient temperature (24-27° C.), 10 μL of Kinase Glo (Promega) was added. The luminescence was measured following a Luminescence Protocol on a Victor plate reader.
as §1, with “PIM-2” for “PIM-1”, “format. […] The assay procedure involves compound dilution followed by addition of 3 nM PIM-2 to the designated well plates and subsequent pre-incubation of the compounds with the enzyme for 30 minutes at ambient temperature (24-27° C.).” for “format.”
The IC50 evaluation of compounds against the PIM-3 Oncogene was performed in a Chemiluminesence assay utilizing a Greiner 384-well white medium binding white plate format. […] Following an incubation period of 120 minutes at ambient temperature (24-27° C.), 10 μL of Kinase Glo (Promega) was added. The luminescence was measured following a Luminescence Protocol on a Victor plate reader.
On the technique in general: Kinase-Glo reads ATP consumption through a luciferase reaction.

The target in the next assay is CK2 (Homo sapiens, UniProt P68400). The experiment in a line: CK2 inhibition, biochemical chemiluminescence holoenzyme assay (Kinase Glo, IC50 determination). The settings on record: Table 1 activity class; symbol given only if active; read-out: CK2 IC50 (Activity C). Here is the method:
Characterization of CK2 Inhibition in a Biochemical Chemiluminesence Assay (IC50 Determination):
The IC50 evaluation of compounds against CK2 was performed in a Chemiluminesence Holoenzyme assay utilizing a Greiner 384-well white medium binding white plate format. […] The assay procedure involves the compound dilution scheme followed by addition of 10 μL of the substrate twice, followed by 10 μL twice of the respective enzyme or buffer to the designated well plates and subsequent pre-incubation of the compounds. Following an incubation period of 150 minutes at ambient temperature (24-27° C.), 10 μL of Kinase Glo (Promega) was added. The luminescence was measured following a Luminescence Protocol on a Victor plate reader.

Chain of CK2 (P68400 whole entry): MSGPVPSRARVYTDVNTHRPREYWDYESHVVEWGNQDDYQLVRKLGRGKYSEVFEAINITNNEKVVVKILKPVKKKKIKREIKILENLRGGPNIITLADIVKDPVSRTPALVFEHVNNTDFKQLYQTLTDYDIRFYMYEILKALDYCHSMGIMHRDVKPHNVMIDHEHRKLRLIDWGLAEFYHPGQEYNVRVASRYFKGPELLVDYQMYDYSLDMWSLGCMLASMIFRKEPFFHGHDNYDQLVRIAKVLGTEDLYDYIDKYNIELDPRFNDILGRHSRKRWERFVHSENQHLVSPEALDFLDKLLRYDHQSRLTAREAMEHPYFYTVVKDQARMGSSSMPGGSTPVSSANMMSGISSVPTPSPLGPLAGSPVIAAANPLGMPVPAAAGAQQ
Chain of CK2 (P67870 whole entry partner): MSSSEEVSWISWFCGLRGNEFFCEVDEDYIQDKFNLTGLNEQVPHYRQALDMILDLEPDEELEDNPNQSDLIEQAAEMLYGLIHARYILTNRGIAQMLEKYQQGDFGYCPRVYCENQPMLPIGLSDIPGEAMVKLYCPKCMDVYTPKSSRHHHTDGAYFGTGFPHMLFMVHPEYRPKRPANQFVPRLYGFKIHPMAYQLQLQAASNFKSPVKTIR

As for `CN1CCN(c2ccc(CNCc3nc4c(oc5ccc(Br)cc54)c(=O)[nH]3)cc2)CC1` [Compound 4, 8-bromo-2-[({[4-(4-methylpiperazin-1-yl)phenyl]methyl}amino)methyl][1]benzofuro[3,2-d]pyrimidin-4(3H)-one], the IC50 (in assay [1]; at CK2) was < 10 µM throughout.

With `O=c1[nH]c(Cn2ccnc2)nc2c1oc1ccc(Br)cc12` [Compound 6, 8-bromo-2-(1H-imidazol-1-ylmethyl)[1]benzofuro[3,2-d]pyrimidin-4(3H)-one], the IC50 (in assay [1]; at CK2) was < 10 µM each time.

`CN(C)c1ccccc1CNCc1nc2c(oc3ccc(Br)cc32)c(=O)[nH]1` [Compound 10, 8-bromo-2-[({[2-(dimethylamino)phenyl]methyl}amino)methyl][1]benzofuro[3,2-d]pyrimidin-4(3H)-one]: the IC50 (in assay [1]; on CK2) was < 10 µM throughout.

As for `O=c1[nH]c(CNc2ccccc2Cl)nc2c1oc1ccc(Br)cc12` [Compound 11, 8-bromo-2-{[(2-chlorophenyl)amino]methyl}[1]benzofuro[3,2-d]pyrimidin-4(3H)-one], the 50% inhibitory concentration (IC50) (in assay [1]; at CK2) was < 10 µM each time.

On to `O=c1[nH]c(CNc2cccc(F)c2)nc2c1oc1ccc(Br)cc12` [Compound 12, 8-bromo-2-{[(3-fluorophenyl)amino]methyl}[1]benzofuro[3,2-d]pyrimidin-4(3H)-one], for which the IC50 on CK2 is < 10 µM.

On to `O=C(Nc1ccc(Cl)c(-c2nc3c(oc4ccc(Br)cc43)c(=O)[nH]2)c1)C1CCNCC1` [Compound 392, ′N-[3-(8-bromo-4-oxo-3,4-dihydro[1]benzofuro[3,2-d]pyrimidin-2-yl)-4-chlorophenyl]piperidine-4-carboxamide], for which, in assay [1], the half-maximal inhibitory concentration (IC50) was < 10 µM.

`Nc1ccc(-c2nc3c(oc4ccccc43)c(=O)[nH]2)c(Cl)c1` [Compound 399, 2-(4-amino-2-chlorophenyl)[1]benzofuro[3,2-d]pyrimidin-4(3H)-one]: in assay [1], the 50% inhibitory concentration (IC50) was < 10 µM.

Consider `CN1CCN(Cc2nc3c(nc4ccc(Br)cn43)c(=O)[nH]2)CC1` [Compound 417, 8-bromo-2-[(4-methylpiperazin-1-yl)methyl]pyrido[1,2-e]purin-4(3H)-one], for which, in assay [1], the 50% inhibitory concentration (IC50) was < 10 µM.

Consider `O=c1[nH]c(CN2CC[C@H](O)C2)nc2c1nc1ccc(Br)cn12` [Compound 418, 8-bromo-2-{[(3S)-3-hydroxypyrrolidin-1-yl]methyl}pyrido[1,2-e]purin-4(3H)-one], for which, in assay [1], the IC50 was < 10 µM.

`O=c1[nH]c(-c2ccc3nc[nH]c3c2)nc2c1oc1ccc(Br)cc12` [Compound 423, 2-(1H-benzimidazol-6-yl)-8-bromo[1]benzofuro[3,2-d]pyrimidin-4(3H)-one]: the 50% inhibitory concentration (IC50) in assay [1] was < 10 µM.

On to `O=c1[nH]c(CN2CC[C@H](O)C2)nc2c1oc1ccc(NC3CCCCC3)cc12` [Compound 449, 8-(cyclohexylamino)-2-{[(3S)-3-hydroxypyrrolidin-1-yl]methyl}[1]benzofuro[3,2-d]pyrimidin-4(3H)-one], for which the concentration for half-maximal inhibition (IC50) in assay [1] is < 10 µM.

In the case of `CN1CCN(Cc2nc3c(oc4ccc(C#CCO)cc43)c(=O)[nH]2)CC1` [Compound 450, 8-(3-hydroxyprop-1-yn-1-yl)-2-[(4-methylpiperazin-1-yl)methyl][1]benzofuro[3,2-d]pyrimidin-4(3H)-one], the IC50 in assay [1] was < 10 µM.

Consider `COc1ccc2oc3c(=O)[nH]c(-c4ccc(N)cc4Cl)nc3c2c1` [Cpd 129, 2-(4-amino-2-chlorophenyl)-8-(methyloxy)[1]benzofuro[3,2-d]pyrimidin-4(3H)-one], for which the concentration for half-maximal inhibition (IC50) on CK2 is < 10 µM.

`COc1ccc2oc3c(=O)[nH]c(-c4ccc(NCC5CCN(C(=O)OC(C)(C)C)CC5)cc4Cl)nc3c2c1` [Cpd 137, 1,1-dimethylethyl 4-[({3-chloro-4-[8-(methyloxy)-4-oxo-3,4-dihydro[1]benzofuro[3,2-d]pyrimidin-2-yl]phenyl}amino)methyl]piperidine-1-carboxylate]: the concentration for half-maximal inhibition (IC50) on CK2 is < 10 µM.
